c1ccc(-n2c(-c3cc(-c4nc5ccccc5n4-c4ccccc4)cc(-c4nc5ccccc5n4-c4ccccc4)c3)nc3ccccc32)cc1
solubility (mole fraction)
Conditions	283.15 K	293.15 K	303.15 K	313.15 K	323.15 K
in DMSO	–	0.00119	0.00151	0.0023	0.0032
in THF	0.00159	0.00202	0.00277	0.0042	0.00451
in acetonitrile	0.000114	0.000135	0.000149	0.000188	0.000232
in chlorobenzene	0.00588	0.00711	0.00857	0.00941	0.0111
in chloroform	0.00762	0.00839	0.0092	0.01	0.0113
in cyclohexane	2e-07	4e-07	6e-07	1.1e-06	1.9e-06
in ethanol	0.000357	0.000437	0.000542	0.000716	0.000932
in ethyl acetate	0.000711	0.000777	0.000921	0.0012	0.00174
in isopropanol	1.11e-05	2.18e-05	3.04e-05	4.51e-05	6.88e-05
in methanol	0.000236	0.000259	0.00029	0.000307	0.000361
in n-butanol	0.00117	0.00132	0.00155	0.00167	0.00192
in n-hexane	3.9e-06	5.8e-06	9.5e-06	1.46e-05	2.22e-05

Reference: BigSolDB 2.1
